Results reported in patent US20020197670A1, “Membrane associated progesterone receptor” (priority 2001, published 2002).

How the values were obtained:
membrane PR in HAEC = test: Fluorescent membrane labeling of HAEC at 4° C.; assay type: cell-based, human; settings: for fluorescent membrane labeling / membrane binding: 4° C. (cells impermeable), FIG. 13A
Experimental: Fluorescent membrane labeling studies were performed with both ligand (progesterone conjugated to BSA) and with antibody C19 at 4° C. Experimentation at cold temperatures keeps the cells impermeable; thus, ligand or antibody cannot enter the cell, and specific binding is restricted to the membrane.
In FIG. 13B, a light microscopy image of the same field as in FIG. 13A is shown to illustrate the position of the cells.
Controls used for these experiments include exposure with BSA and the fluorescent tag in the absence of progesterone for the ligand binding study and use of peptide neutralization for the antibody labeling study. […] Approximately 10% of all cells show positive staining. This percentage has been found by other investigators in experiments with sperm. The reason for this low percentage of staining is not yet clear. One possibility includes differential expression of the membrane PR during the cell cycle.

[1] = tested on: Aortic endothelial cells (HAEC); test: Calcium response of HAEC to progesterone (fluo-3AM fluorescence); assay type: cell-based, human; settings: progesterone 50 μM
Experimental: Aortic endothelial cells were cultured in 100 cm petri dishes. All solutions including washes contained probenecid, a chemical that minimizes leakage of fluorophore from the cells. The medium contained BSA, fluo-3-[…] (fluo-3AM), and pluronic F-127, an agent that facilitates diffusion of fluorophore through cell membranes. The cells were incubated for 1 hour at RT. Following incubation, the cells were washed several times and then treated with trypsin. After washing, the cells were enumerated by counting in a hemacytometer and the cell number was adjusted to a predetermined value. Progesterone (50 μM) was added to cell suspensions just prior to fluorescence measurement. An aliquot of the cell suspension was placed in a cuvette and measured in a SLM-8000C fluorescence spectrophotometer. The cells were excited at 504 nm and emitted fluorescence measured at 526 nm. The data (not shown) establishes an immediate 1.5-fold increase in calcium influx with exposure to progesterone. Since this reaction occurred within 2-3 seconds, it is clear that this is a nongenomic response to a sex steroid.

Row | Molecule | fluorescent membrane labeling / membrane binding (membrane PR in HAEC) | cells showing positive staining for the membrane PR (membrane PR in HAEC; fluorescent membrane labeling, 4° C., FIGS. 13A-13D) | increase in calcium influx ([1]; HAEC suspension, fluo-3AM, excitation 504 nm, emission 526 nm, data not shown) [fold] | time within which the calcium reaction occurred ([1]; HAEC) [s]
1 | progesterone conjugated to BSA: progesterone-conjugated bovine serum albumin-fluorescein isothiocyanate (Sigma), ligand for fluorescent membrane labeling | staining of the membrane is well seen | – | – | –
2 | CC(=O)[C@H]1CC[C@H]2[C@@H]3CCC4=CC(=O)CC[C@]4(C)[C@H]3CC[C@]12C [progesterone, Progesterone] | specific membrane binding | Approximately 10% | 1.5 | 2 to 3
